# Test results: US20180015054A1, “Method of Maintaining the Anti-Depressant Effect of Ketamine With Lithium” (Icahn School of Medicine at Mount Sinai, priority 2014, published 2018)
# Experiments:
# [1] = test system: patients with treatment-resistant major depression; details: cited from earlier work
# [2] = test system: patients with treatment-resistant depression (TRD); details: cited from earlier work
# depressive symptoms = details: cited from earlier work
# [3] = test system: patients with treatment-resistant major depression; details: cited from earlier work; remark: listed apart in the source
# [4] = test system: patients with BPD, TRD, MDD and PTSD; details: cited from earlier work
# PTSD symptom severity = details: assessed 24 hours after infusion; cited from earlier work
# [5] = test system: patients with treatment-resistant major depression (TRD); experiment: Planned randomized placebo-controlled double-blind trial of lithium + ketamine in TRD; type: in vivo, human
# Excerpt: A single-site early phase study will enroll patients with treatment-resistant major depression (TRD) in a randomized, placebo (PLC)-controlled, double blind clinical trial of lithium (Li)+ketamine (KET). The study will efficiently test the efficacy of Li compared to PLC in continuing the antidepressant response to KET. The study occurs in several phases. During a Screening phase participants undergo informed consent followed by a thorough medical and psychiatric evaluation. Eligible participants who meet all study inclusion/exclusion criteria receive a single Test KET(ketamine) Infusion to determine antidepressant response status. Non-responders [defined as <50% improvement in depression severity as measured by the Montgomery-Asberg Depression Rating Scale (MADRS) 24 hours following the infusion] are exited from the study and provided with standard of care. KET responders (2:50% improvement in MADRS) proceed to the Li/PLC treatment phase in which participants receive up to 1200 mg/day of Li or matching PLC under double blind conditions. Participants proceed to a 4-week Continuation Phase while remaining on their treatment assignment (Li/PLC) during which time depressive symptoms are monitored twice weekly. The primary outcome is depression severity as measured by the MADRS in the Li compared to PLC group at the 2-week point during the Continuation Phase. […]
# PTSD patients = details: three clusters: re-experiencing, avoidance and numbing, hyperarousal; cited from earlier work
smiles,measurement,setting,value
CNC1(c2ccccc2Cl)CCCCC1=O (centres unmarked) [ketamine],improvement in MADRS score compared to midazolam group,"[1]; 24 hours after single IV infusion 0.5 mg/kg, P<0.001",significantly greater improvement
same,duration of efficacy following a ketamine infusion,[1]; no longer separated from placebo at 7-day time point,1 week
same,duration of dissociative or psychotomimetic effects,[1]; no patient beyond this time,≤ 2 h
same,safety and tolerability,[1]; single IV infusion 0.5 mg/kg,very safe and well tolerated
same,cumulative risk of relapse,[2]; 4-week observation period after ketamine,62%
same,response rate (reduction of 50% or more on MADRS),"[2]; 26 TRD patients, single open-label IV infusion 0.5 mg/kg",65%
same,cumulative probability of relapse,depressive symptoms; 4-week assessment period after ketamine,73%
same,cumulative risk of relapse,"[3]; 3-month observation period, free of concomitant medication",70%
same,time to rapid improvement in depressive symptoms,[3]; after first ketamine infusion,≤ 24 h
same,median time to relapse,[3]; following sixth and final ketamine infusion,18 days
same,overall response rate,[3]; repeated infusions over 2 weeks,70.8%
same,onset of antidepressant effects,"[4]; as early as, following single intravenous administration",40 min
same,duration of antidepressant efficacy,[4]; following a single administration,a few days to approximately a week or two
same,reduction in PTSD symptom severity compared with midazolam,PTSD symptom severity,significant and rapid reduction
"O=C([O-])[O-].[Li+].[Li+] [lithium, lithium carbonate]",anticipated maintenance of the ketamine anti-depressant effect,"[5]; ketamine responders receiving lithium, after last dose of ketamine",at least two or three months
same,expected duration of therapeutic effect of lithium following a response to ketamine,[5]; lithium carbonate 300-1800 mg daily,at least 3 months
CN[C@H]1CC[C@@H](c2ccc(Cl)c(Cl)c2)c2ccccc21 [sertraline],efficacy in PTSD,PTSD patients,modest effect sizes and limited efficacy
Fc1ccc([C@@H]2CCNC[C@H]2COc2ccc3c(c2)OCO3)cc1 [paroxetine],efficacy in PTSD,PTSD patients,modest effect sizes and limited efficacy
Nc1nc2ccc(OC(F)(F)F)cc2s1 [riluzole],relapse prevention following ketamine compared to placebo,[2]; TRD,not superior to placebo
same,relapse prevention following ketamine compared to placebo,depressive symptoms; 4-week study,no benefit of riluzole beyond placebo
